Results as given in US20170304281A1, “METHODS OF USING POTASSIUM CHANNEL INHIBITORS (BLOCKERS) FOR FLUID RESUSCITATION” (Loyola University of Chicago, priority 2016, published 2017).
Read-outs that look alike come from different tables or passages of the source.

Columns and labels:
[1] = system: Kv7 channel; conditions: XE991 vs linopirdine; cited from earlier work
[2] = system: rats hemorrhaged to induce hemorrhagic shock; experiment: Fluid resuscitation after hemorrhagic shock, intravenous bolus injection at end of shock period; format: in vivo, rat; conditions: for fluid requirements to resuscitate to a MAP of 70 mmHg: mean±SD
Procedure: Further phases of the investigation entailed the use of anesthetized male Sprague-Dawley rats that were hemorrhaged to a mean arterial blood pressure (MAP) of 25 mmHg for thirty minutes to induce hemorrhagic shock, followed by fluid resuscitation with normal saline to a MAP of 70 mmHg until t=75 minutes. Hemodynamics and fluid requirements were continuously monitored.
FIG. 3 contains three plots evidencing the ability of linopirdine to dose-dependently reduce fluid requirements to maintain hemodynamics during resuscitation from induced hemorrhagic shock. At the end of the hemorrhagic shock period (t=30 min), normal saline alone (“vehicle”; n=4), 1 mg/kg (n=5), 3 mg/kg (n=3), or 6 mg/kg (n=3) linopirdine in 0.5 mL normal saline were bolus injected intravenously. Plot “A” represents the mean arterial blood pressure (MAP, mmHg), plot “B” represents the hemorrhage volume in percent of total blood volume, and plot “C” represents the resuscitation fluid requirements to maintain blood pressure at 70 mmHg. Fluid requirements to resuscitate to a MAP of 70 mmHg were: 65±34 mL/kg with normal saline alone and 57±13 mL/kg, 22±8 mL/kg (p<0.05 vs. normal saline alone) and 22±11 mL/kg (p<0.05 vs. normal saline alone) with 1 mg/kg, 3 mg/kg, and 6 mg/kg linopirdine, respectively. The effect of linopirdine to reduce fluid requirements to maintain hemodynamics during resuscitation from hemorrhagic shock appeared to be saturated at a bolus dose of about 3 mg/kg linopirdine. As compared with normal saline-treated animals, a bolus injection of linopirdine (3 mg/kg and 6 mg/kg) reduced fluid resuscitation requirements by 70%. Data are mean±SD. *:p<0.05 vs. normal saline alone. Two-way ANOVA/Bonferroni post-hoc multiple comparison test.
At the end of the hemorrhagic shock period (t=30 min), normal saline alone (“vehicle”; n=3) or 1 mg/kg (n=3) of XE991 in 0.5 mL normal saline were injected intravenously. Plot “A” represents the mean arterial blood pressure (MAP, mmHg), plot “B” represents the hemorrhage volume in percent of total blood volume, and plot “C” represents the resuscitation fluid requirements to maintain blood pressure at 70 mmHg. […] Data are mean±SD. *:p<0.05 vs. normal saline alone. Two-way ANOVA/Bonferroni post-hoc multiple comparison test.

[3] = oral administration in humans; cited from earlier work
[4] = phase 1 and phase 2 clinical trials as cognition-enhancing drug in Alzheimer's disease; cited from earlier work
[5] = intravenous injection of 2.5 mg/kg in rats; cited from earlier work
[6] = system: rats hemorrhaged to induce hemorrhagic shock; experiment: Fluid resuscitation after hemorrhagic shock, resuscitation fluid (normal saline) supplemented with drug; format: in vivo, rat; conditions: for fluid requirements to resuscitate to a MAP of 70 mmHg: mean±SD
Procedure: Further phases of the investigation entailed the use of anesthetized male Sprague-Dawley rats that were hemorrhaged to a mean arterial blood pressure (MAP) of 25 mmHg for thirty minutes to induce hemorrhagic shock, followed by fluid resuscitation with normal saline to a MAP of 70 mmHg until t=75 minutes. Hemodynamics and fluid requirements were continuously monitored. […] At the end of the hemorrhagic shock period (t=30 min), animals were resuscitated with normal saline alone (“vehicle”; n=4) or normal saline supplemented with 1.25 (n=4), 6.25 (n=3), 12.5 (n=4), or 200 (n=6) […] of linopirdine. Plot “A” represents the mean arterial blood pressure (MAP, mmHg), plot “B” represents the hemorrhage volume in percent of total blood volume, and plot “C” represents the resuscitation fluid requirements to maintain blood pressure at 70 mmHg. Fluid requirements to resuscitate to a MAP of 70 mmHg were: 73±12 mL/kg with NS, 72±24 mL/kg with NS supplemented with 1.25 μg/mL linopirdine and 61±20 mL/kg, 36±9 mL/kg (p<0.05 vs. NS alone) and 31±9 mL/kg (p<0.05 vs. NS alone) with NS supplemented with 6.25 μg/mL, 12.5 μg/mL and 200 μg/mL linopirdine, respectively. […] Data are mean±SD. *:p<0.05 vs. normal saline alone. Two-way ANOVA/Bonferroni post-hoc multiple comparison test.

[7] = rat, in vivo
Procedure: After intravenous injection of 2.5 mg/kg linopirdine, a half-life of 0.6 hours has been determined in rats. Thus, the short half-life would indicate that linopirdine is a drug that is easily controllable if adverse effects were to occur.

[8] = system: normal rats; experiment: Effect of intravenous bolus doses on blood pressure in normal anesthetized rats (sham, no hemorrhage); format: in vivo, rat; conditions: for peak mean arterial blood pressure (MAP): normal rats n=3, baseline MAP 92±2.5 mmHg, mean±SD
Procedure: Initial phases of the investigation entailed the administration of linopirdine to anesthetized male Sprague-Dawley rats to determine its effect on blood pressure. Hemodynamics and fluid requirements were continuously monitored.
FIG. 1 contains a plot representing the effect of linopirdine on blood pressure in normal rats (sham—no hemorrhage, n=3) that received five increasing intravenous (i.v.) bolus doses of linopirdine (0.1-6 mg per kg of body weight) in 0.5 mL normal saline (NS) at fifteen minute intervals. […] Data are mean±SD.
FIG. 2 contains a plot representing the effect of the Kv7 channel activator retigabine on blood pressure when administered to normal rats (sham—no hemorrhage, n=3) by intravenous injection in increasing dosages of 0.1 mg/kg, 0.5 mg/kg, 1 mg/kg, 3 mg/kg, 6 mg/kg, and 12 mg/kg in 0.5 mL normal saline. […] Data are mean±SD.

## O=C1c2ccccc2C(Cc2ccncc2)(Cc2ccncc2)c2ccccc21 [XE991]
[1]
  potency for channel blockade relative to linopirdine: five to ten-fold higher potency
[2]; XE991 1 mg/kg i.v. bolus, n=3, compared with linopirdine 3 mg/kg and 6 mg/kg
  effect on resuscitation fluid requirements relative to linopirdine: comparable effect

## O=C1N(c2ccccc2)c2ccccc2C1(Cc1ccncc1)Cc1ccncc1 [linopirdine]
[3]
  half-life: 24 to 192 min
[4]
  adverse effects in clinical trials: no relevant adverse effects
[5]
  half-life: 36 min
[6]; NS supplemented with 1.25 μg/mL linopirdine, n=4, NS alone 73±12 mL/kg
  fluid requirements to resuscitate to a MAP of 70 mmHg: 72 ± 24 mL/kg
[6]; NS supplemented with 6.25 μg/mL linopirdine, n=3, NS alone 73±12 mL/kg
  fluid requirements to resuscitate to a MAP of 70 mmHg: 61 ± 20 mL/kg
[6]; NS supplemented with 12.5 μg/mL linopirdine, n=4, p<0.05 vs. NS alone (73±12 mL/kg), cumulative dose 0.446 mg/kg
  fluid requirements to resuscitate to a MAP of 70 mmHg: 36 ± 9 mL/kg
[6]; NS supplemented with 200 μg/mL linopirdine, n=6, p<0.05 vs. NS alone (73±12 mL/kg)
  fluid requirements to resuscitate to a MAP of 70 mmHg: 31 ± 9 mL/kg
[6]; supplemented resuscitation fluid, hemorrhagic shock rats
  concentration in normal saline at which the effect was saturated: 12.5 µg/mL
[7]
  toxicity associated with treatment: No toxicity
[8]; 6 mg/kg i.v. injection, normal rats
  transient increase of mean arterial blood pressure: approximately 10%
[8]; 6 mg/kg linopirdine injected after last (12 mg/kg) dosage of retigabine, normal rats
  reversal of retigabine-induced hypotension: able to be reversed
[8]; 0.1-6 mg/kg i.v. bolus doses, normal rats
  time for MAP to return to baseline after bolus: ten to fifteen
[8]; high i.v. bolus dose 6 mg/kg and total i.v. dose 10.6 mg/kg within one hour, normotensive rats
  effect on systemic blood pressures: only minimal and short-lived increases
[8]; linopirdine 0.1 mg/kg i.v. bolus
  peak mean arterial blood pressure (MAP): 92±2 mmHg
[8]; linopirdine 0.5 mg/kg i.v. bolus
  peak mean arterial blood pressure (MAP): 93±2 mmHg
[8]; linopirdine 1 mg/kg i.v. bolus
  peak mean arterial blood pressure (MAP): 95±4 mmHg
[8]; linopirdine 3 mg/kg i.v. bolus
  peak mean arterial blood pressure (MAP): 100±2 mmHg
[8]; linopirdine 6 mg/kg i.v. bolus
  peak mean arterial blood pressure (MAP): 105±0.6 mmHg
[2]; 1 mg/kg i.v. bolus at t=30 min, n=5, normal saline alone 65±34 mL/kg
  fluid requirements to resuscitate to a MAP of 70 mmHg: 57 ± 13 mL/kg
[2]; 3 mg/kg i.v. bolus at t=30 min, n=3, p<0.05 vs. normal saline alone (65±34 mL/kg)
  fluid requirements to resuscitate to a MAP of 70 mmHg: 22 ± 8 mL/kg
[2]; 6 mg/kg i.v. bolus at t=30 min, n=3, p<0.05 vs. normal saline alone (65±34 mL/kg)
  fluid requirements to resuscitate to a MAP of 70 mmHg: 22 ± 11 mL/kg
[2]; bolus injection 3 mg/kg and 6 mg/kg
  reduction of fluid resuscitation requirements compared with normal saline-treated animals: 70%
[2]; i.v. bolus, hemorrhagic shock rats
  bolus dose at which the fluid-sparing effect appeared saturated: about 3 mg/kg
[2]; single dose of three milligrams per kilogram at beginning of fluid resuscitation
  reduction of resuscitation fluid requirements at saturating dose: 65%
